# Legend:
# RSV A2 = experiment: CPE assay, RSV A2 in HEp-2 cells (resazurin); assay type: cell-based; conditions: human respiratory syncytial virus, 120 h, RSV A2 0.2 MOI, 5 days
# in vitro = assay type: cell-based, Human; conditions: human; HEp-2 cells, 5 or 6 days; read-out: Cytotoxicity CC50
# HEp-2 cells = experiment: in vitro; assay type: cell-based, Human
structure (smiles),measurement,setting,value
Cc1cnc(N2CC3(CCOCC3)C2)c(C(=O)Nc2ccc(C(=O)N3CCc4cc(C(=O)Nc5c(C)cccc5F)sc4-c4ccccc43)cc2)c1 [PC786],IC50,RSV A2,0.5 nM
same,CC50,in vitro,> 14000 nM
same,concentration up to which cell viability was not affected,HEp-2 cells,≥ 14 µM

# From publication PMC11680393 (Viruses, 2024)
